# Columns and labels:
# HCC2935 cells = assay: Alamar Blue proliferation assay, HCC2935; type: cell-based, human; conditions: 30 nM, normalized to negative control miRNA (100% proliferation)
# Excerpt: The inventors assessed the therapeutic effect of hsa-miR-147 for lung cancer by using 12 individual lung cancer cell lines. To measure cellular proliferation of lung cancer cells, the following parental non-small cell lung cancer (NSCLC) cells were used: cells derived from lung adenocarcinoma (A549, H1299, H522, H838, Calu-3, HCC827, HCC2935), cells derived from lung squamous cell carcinoma (H520, H226), cells derived from lung adenosquamous cell carcinoma (H596), cells derived from lung bronchioalveolar carcinoma (H1650), and cells derived from lung large cell carcinoma (H460). In addition to these parental cell lines, highly metastatic NSCLC cells were used that stably express the firefly luciferase gene: A549-luc, H460-luc, HCC827-luc, H1650-luc, H441-luc. Unlike the parental cell lines, these metastatic cells readily migrate to distant sites of the test animal and form metastases upon subcutaneous, orthotopic, or intravenous injection. Synthetic hsa-miR-147 or negative control miRNA was delivered via lipid-based transfection into A549, H1299, H522, H838, Calu-3, HCC827, HCC2935, H520, H596, H1650, H460, A549-luc, H460-luc, HCC827-luc, H1650-luc, H441-luc cells and via electroporation into H226 cells. […]
# H226 lung cancer cells = assay: Long-term growth curve with repeated electroporation, H226; type: cell-based, human; conditions: 1.6 μM electroporated, repeated on days 6, 17 and 25; day 31; relative to control cells (100%)
# Method: To evaluate the therapeutic activity of hsa-miR-147 over an extended period of time, the inventors conducted growth curve experiments in the presence of miRNA for up to 31 days in H226 lung cancer cells. Since in vitro transfections of naked interfering RNAs, such as synthetic miRNA, are transient by nature and compromised by the dilution of the oligo during ongoing cell divisions, miRNA was administered at multiple time points (Bartlett et al., 2006; Bartlett et al., 2007). To accommodate miRNA delivery into a large quantity of cells, hsa-miR-147 or negative control miRNA were delivered by the electroporation method. Briefly, 1×10^6 H226 were electroporated in triplicate with 1.6 μM hsa-miR-147 or negative control using the BioRad Gene Pulser Xcell™ instrument (BioRad Laboratories Inc., Hercules, Calif., USA), seeded and propagated in regular growth medium. When the control cells reached confluence (days 6, 17 and 25), cells were harvested, counted and electroporated again with the respective miRNAs. […] The population doubling was calculated from these electroporation events using the formula PD=ln(Nf/N0)/ln2 and adjusting for the fact that approximately 72% of newly seeded cells adhere to the plate. […]
substance,measurement,setting,value
"hsa-miR-147: Synthetic pre-miR-147 (Ambion AM17100; Dharmacon in vivo); mature sequence GUGUGUGGAAAUGCUUCUGC, MIMAT0000251, SEQ ID NO:114 (synthetic pre-miR (Ambion/Dharmacon), chemistry not given here; listed as Homo sapiens)",% proliferation,HCC2935 cells,60.35%
same,inhibition of H226 cell growth,H226 lung cancer cells,90.9%
same,remaining cells,H226 lung cancer cells,9.1%

# — patent US20090131356A1, “miR-15, miR-26, miR-31, miR-145, miR-147, miR-188, miR-215, miR-216, miR-331, mmu-miR-292-3P REGULATED GENES AND PATHWAYS AS TARGETS FOR THERAPEUTIC INTERVENTION” (ASURAGEN, INC., priority 2006, published 2009)
